Measurements from US20240027453A1, “METHOD FOR DETECTION AND QUANTITATIVE MONITORING OF INFECTIONS WITH HERPESVIRUSES” (The Trustees of Princeton University, priority 2020, published 2024).
Where two headings read alike, the source gives them in different places.

Tested on: HCMV
Format: cell-based
Conditions: FIG. 7A
Procedure, shortened: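 Viral protein levels come from parallel reaction monitoring on a Q Exactive HF: trypsin digests of infected-cell lysates, quantified as summed transition areas, normalized to host control peptides, averaged across peptides per protein. Cells were MRC5 fibroblasts, infected at MOI 3 (HSV-1 or HCMV) after 12 h compound pretreatment, with re-dosing every 24 h.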
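For UL32 (P08318) protein level in this document: each peptide scaled to its average across all runs.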
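For UL38 (P16779) protein level in this document: each peptide scaled to its average across all runs.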
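For UL78 (P16751) protein level in this document: each peptide scaled to its average across all runs.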
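For UL95 (P16801) protein level in this document: each peptide scaled to its average across all runs.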

Oc1ccc(C=Cc2cc(O)cc(O)c2)cc1 [Resveratrol]
CVC2 (P16726) protein level (timepoint 24, DE): 0.02416
DBP (P17147) protein level (timepoint 24, DE): 0.2603
HELI (P16736) protein level (timepoint 24, DE): 0.5239
IR01 (P09710) protein level (timepoint 24, DE): 0.2395
NEC2 (P16791) protein level (timepoint 24, DE): 0.05031
TRM1 (P16724) protein level (timepoint 24, DE): 0.0496
UL4 (P17146) protein level (timepoint 24, DE): 0.02792
UL26 (P16762) protein level (timepoint 24, DE): 0.08745
UL32 (P08318) protein level (timepoint 24, DE): 0.02724
UL34 (P16812) protein level (timepoint 24, DE): 0.1096
UL38 (P16779) protein level (timepoint 24, DE): 0.9691
UL44 (P16790) protein level (timepoint 24, DE): 0.0591
UL48 (P16785) protein level (timepoint 24, DE): 0.02194
UL54 (P08546) protein level (timepoint 24, DE): 0.6295
UL71 (P16823) protein level (timepoint 24, DE): 0.5252
UL78 (P16751) protein level (timepoint 24, DE): 1.896
UL84 (P16727) protein level (timepoint 24, DE): 0.1406
UL95 (P16801) protein level (timepoint 24, DE): 0.06756
UL96 (P16787) protein level (timepoint 24, DE): 0.4727
UL97 (P16788) protein level (timepoint 24, DE): 0.3652
UL98 (P16789) protein level (timepoint 24, DE): 0.2979
UL102 (P16827) protein level (timepoint 24, DE): 0.889
UL104 (P16735) protein level (timepoint 24, DE): 0.07335
UL112/UL113 (P17151) protein level (timepoint 24, DE): 0.3601
UL114 (P16769) protein level (timepoint 24, DE): 0.8008
UL119/UL118 (P16739) protein level (timepoint 24, DE): 0.5596
UL128 (P16837) protein level (timepoint 24, DE): 0.08035
US8 (P09730) protein level (timepoint 24, DE): 0.9856
US9 (P09729) protein level (timepoint 24, DE): 1.12
US12 (P09721) protein level (timepoint 24, DE): 1.673
US13 (P09720) protein level (timepoint 24, DE): 0.5476
US14 (P09719) protein level (timepoint 24, DE): 0.3883
US22 (P09722) protein level (timepoint 24, DE): 0.3379
US23 (P09701) protein level (timepoint 24, DE): 1.209
US24 (P09700) protein level (timepoint 24, DE): 1.019
US34 (P09709) protein level (timepoint 24, DE): 2.475
gB (P06473) protein level (timepoint 24, DE): 0.2035
IRS1 (P09715) protein level (timepoint 24, IE): 0.53
TRS1 (P09695) protein level (timepoint 24, IE): 0.2907
UL13 (P16755) protein level (timepoint 24, IE): 2.216
UL36 (P16767) protein level (timepoint 24, IE): 1.36
UL37 (P16778) protein level (timepoint 24, IE): 0.9797
UL122 (P19893) protein level (timepoint 24, IE): 0.06584
UL123 (P13202) protein level (timepoint 24, IE): 1.053
CVC1 (P16799) protein level (timepoint 24, L): 0.1335
IR11 (P16809) protein level (timepoint 24, L): 0.4092
MCP (P16729) protein level (timepoint 24, L): 0.005554
TRM2 (P16792) protein level (timepoint 24, L): 0.01236
UL22A (P16845) protein level (timepoint 24, L): 0.06878
UL25 (P16761) protein level (timepoint 24, L): 0.02173
UL29 (P16764) protein level (timepoint 24, L): 0.6989
UL31 (P16848) protein level (timepoint 24, L): 0.4434
UL43 (P16781) protein level (timepoint 24, L): 0.0621
UL52 (P16793) protein level (timepoint 24, L): 0.02488
UL80 (P16753) protein level (timepoint 24, L): 0.03642
UL82 (P06726) protein level (timepoint 24, L): 0.2024
UL88 (P16731) protein level (timepoint 24, L): 0.05174
UL94 (P16800) protein level (timepoint 24, L): 0.1027
UL99 (P13200) protein level (timepoint 24, L): 0.04805
UL103 (P16734) protein level (timepoint 24, L): 0.3861
UL117 (P16770) protein level (timepoint 24, L): 0.7439
gH (P12824) protein level (timepoint 24, L): 0.08651
gL (P16832) protein level (timepoint 24, L): 0.03756
gM (P16733) protein level (timepoint 24, L): 0.04047
gN (P16795) protein level (timepoint 24, L): 0.1854
DUT (P16824) protein level (timepoint 24, LL): 0.3815
IR12 (P16810) protein level (timepoint 24, LL): 0.1305
TRX1 (P16783) protein level (timepoint 24, LL): 0.007402
TRX2 (P16728) protein level (timepoint 24, LL): 0.006335
UL24 (P16760) protein level (timepoint 24, LL): 0.115
UL40 (P16780) protein level (timepoint 24, LL): 0.6816
UL47 (P16784) protein level (timepoint 24, LL): 0.01314
UL49 (P16786) protein level (timepoint 24, LL): 0.3801
UL69 (P16749) protein level (timepoint 24, LL): 0.259
UL70 (P17149) protein level (timepoint 24, LL): 0.2151
UL83 (P06725) protein level (timepoint 24, LL): 0.04868
UL132 (P69338) protein level (timepoint 24, LL): 0.1519
US15 (P09718) protein level (timepoint 24, LL): 2.089
CVC2 (P16726) protein level (timepoint 48, DE): 0.04895
DBP (P17147) protein level (timepoint 48, DE): 0.3174
HELI (P16736) protein level (timepoint 48, DE): 0.7035
IR01 (P09710) protein level (timepoint 48, DE): 0.3325
NEC2 (P16791) protein level (timepoint 48, DE): 0.1347
RIR1 (P16782) protein level (timepoint 48, DE): 0.1467
TRM1 (P16724) protein level (timepoint 48, DE): 0.1744
UL4 (P17146) protein level (timepoint 48, DE): 0.1071
UL26 (P16762) protein level (timepoint 48, DE): 0.09224
UL32 (P08318) protein level (timepoint 48, DE): 0.06407
UL34 (P16812) protein level (timepoint 48, DE): 0.1265
UL35 (P16766) protein level (timepoint 48, DE): 0.02653
UL38 (P16779) protein level (timepoint 48, DE): 0.8069
UL44 (P16790) protein level (timepoint 48, DE): 0.09657
UL48 (P16785) protein level (timepoint 48, DE): 0.05393
UL54 (P08546) protein level (timepoint 48, DE): 0.9464
UL71 (P16823) protein level (timepoint 48, DE): 0.3661
UL78 (P16751) protein level (timepoint 48, DE): 1.07
UL84 (P16727) protein level (timepoint 48, DE): 0.1489
UL95 (P16801) protein level (timepoint 48, DE): 0.2914
UL96 (P16787) protein level (timepoint 48, DE): 0.3861
UL97 (P16788) protein level (timepoint 48, DE): 0.3732
UL98 (P16789) protein level (timepoint 48, DE): 0.3412
UL102 (P16827) protein level (timepoint 48, DE): 1.27
UL104 (P16735) protein level (timepoint 48, DE): 0.1091
UL112/UL113 (P17151) protein level (timepoint 48, DE): 0.4545
UL114 (P16769) protein level (timepoint 48, DE): 1.322
UL119/UL118 (P16739) protein level (timepoint 48, DE): 0.6367
UL128 (P16837) protein level (timepoint 48, DE): 0.03596
US8 (P09730) protein level (timepoint 48, DE): 1.343
US9 (P09729) protein level (timepoint 48, DE): 2.242
US12 (P09721) protein level (timepoint 48, DE): 0.8964
US13 (P09720) protein level (timepoint 48, DE): 0.5923
US14 (P09719) protein level (timepoint 48, DE): 0.2304
US22 (P09722) protein level (timepoint 48, DE): 0.5371
US23 (P09701) protein level (timepoint 48, DE): 0.5982
US24 (P09700) protein level (timepoint 48, DE): 0.4857
US34 (P09709) protein level (timepoint 48, DE): 2.409
gB (P06473) protein level (timepoint 48, DE): 0.1991
IRS1 (P09715) protein level (timepoint 48, IE): 0.8671
TRS1 (P09695) protein level (timepoint 48, IE): 0.7123
UL13 (P16755) protein level (timepoint 48, IE): 0.6646
UL36 (P16767) protein level (timepoint 48, IE): 1.045
UL37 (P16778) protein level (timepoint 48, IE): 1.143
